From article PMC5514907, “Targeting of the breast cancer microenvironment with a potent and linkable oxindole based antiangiogenic small molecule” (Oncotarget, 2017)
Entries after “also recorded” stand apart in the source; their conditions may differ. Like-named read-outs stand apart in the source and are kept apart here.

Key:
PDGFR-β [1] = biological target: T1, PDGFR-β (Homo sapiens, UniProt P09619); test: Biochemical tyrosine kinase assay (trans-phosphorylation, GST-fusion protein); details: in vitro kinase activity, ± SD; read-out: IC50 PDGFR-b
T1 construct: 557-end; purchased Sigma Aldrich G8671

KIT = biological target: T2, KIT (Homo sapiens, UniProt P10721); test: as above; details: in vitro kinase activity, ± SD
T2 construct: 544-end; purchased Sigma Aldrich C0624

FLT3 = biological target: T3, FLT3 (Homo sapiens, UniProt P36888); test: as above; details: in vitro kinase activity, ± SD
T3 construct: 571–993; purchased Sigma Aldrich F6432

RET = biological target: T4, RET (Homo sapiens, UniProt P07949); test: as above; details: in vitro kinase activity, ± SD
T4 construct: 658-end; purchased Sigma Aldrich R7782

EGFR = biological target: T5, EGFR (Homo sapiens, UniProt P00533); test: Biochemical tyrosine kinase assay (trans-phosphorylation, GST-fusion protein), negative control; details: in vitro kinase activity
T5 construct: 695-end; purchased Sigma Aldrich SRP5023

[2] = biological target: VEGFR-2, PDGFR-β, KIT, FLT3 and RET; test: Biochemical tyrosine kinase assay, RTK panel summary; details: range over the RTK targets of sunitinib; read-out: IC50 over most of the RTKs
PDGFR-β [3] = biological target: T6, PDGFR-β (Mus musculus, UniProt P05622); test: Cellular ligand-dependent autophosphorylation assay (Western blot) in NIH/3T3; type: cell-based; details: NIH/3T3, PDGF-BB stimulated, ± SD
T6 construct: host or cells: NIH/3T3

MCF7 = test: MTT cytotoxicity assay; type: cell-based; details: Homo sapiens
T47D = test: MTT cytotoxicity assay; type: cell-based; details: Homo sapiens
ZR75-1 = test: MTT cytotoxicity assay; type: cell-based; details: Homo sapiens, ZR-75-1
HCC1954 = test: MTT cytotoxicity assay; type: cell-based; details: Homo sapiens
SKBR3 = test: MTT cytotoxicity assay; type: cell-based; details: Homo sapiens, SK-BR-3
HUVEC = test: MTT cytotoxicity assay; type: cell-based; details: Homo sapiens
[4] = test system: panel of BrCa cell lines and HUVEC; test: MTT cytotoxicity assay, summary over all cell lines; type: cell-based; details: Homo sapiens, range over six BrCa cell lines and HUVEC
MDA-MB-231 = test: Wound healing/migration assay; type: cell-based; details: various concentrations, 24 hours
[5] = Pharmacokinetic evaluation in blood by LC-MS/MS; type: in vivo, female NOD/SCID mice; details: for AUC(0-t) / Tmax / Cmax: 100 umol/kg; for AUC(0-t) / Cmax: ± S.D.; for AUC(0-t): read-out: AUC0-24
Method: The in vitro efficacy of SAP was followed by its pharmacokinetic evaluation in mice. Initially, the PK parameters of SAP were compared in an oral versus IP administration (Figure 3).
Figure 3 Pharmacokinetic evaluation of SAP Female NOD/SCID mice (n = 6) were dosed per os or IP with SAP (100 μmol/Kg) and blood samples were collected at selected time points. Drug levels of SAP were monitored by LC-MS/MS. The AUC for each treatment was calculated as a measure of drug exposure over time. TEXT PRINTED IN THE PICTURE: SAP: Cmax (μmol/L) (± S.D.): 0.2 (± 0.1) (Administration Route: per os; Dose (μmol/Kg): 100); tmax (h): 1 (Administration Route: per os; Dose (μmol/Kg): 100); AUC0-24 (± S.D.) (h) x (μmol/L): 2.5 (± 2.3) (Administration Route: per os; Dose (μmol/Kg): 100); Cmax (μmol/L) (± S.D.): 27 (± 3.6) (Administration Route: Intraperitoneal; Dose (μmol/Kg): 100); tmax (h): 0.25 (Administration Route: Intraperitoneal; Dose (μmol/Kg): 100); AUC0-24 (± S.D.) (h) x (μmol/L): 50.3 (± 15.3) (Administration Route: Intraperitoneal; Dose (μmol/Kg): 100)
All animal procedures were approved by the Bioethical Committee of BRFAA based on the European Directive 86/609. For pharmacokinetic studies, female NOD/SCID mice (Charles River, Italy) were used (8–10 weeks old, n = 6 per group). Dosing solutions of SAP (100 μmol/Kg) were prepared in 20% 2-hydroxypropyl β-Cyclodextrin in sterile water (HP-b-CD). SAP was administered intraperitoneally (IP) or orally and blood samples were collected and prepared as described previously.

HCC1954 xenograft [6] = test: Immunohistochemistry (Ki-67, CD31) of tumor sections; type: in vivo, NOD/SCID mice
[7] = test system: phosphorylation status of 18 kinases; test: In vivo kinase activity (PathScan intracellular signaling array) in HCC1954 tumor extracts; parameters: species or system NOD/SCID mice; details: HCC1954 tumors, d18
[8] = test system: Tg(kdrl:gfp)^s843 transgenic embryos; type: in vivo; details: for intersomitic vessel (ISV) formation / angiogenic sprouting at 48 hpf: treated from 24 to 48 hpf
[9] = Whole embryo LC-MS/MS biodistribution (bioaccumulation); type: in vivo, zebrafish; details: 24h post drug exposure, 50 μM, data not shown
[10] = Cardiotoxicity, echocardiography of LV function; type: in vivo, C57BL/6 female mice; details: for %FS (Fractional Shortening) at one week post treatment: 100 μmol/Kg daily IP, vehicle 46.34 ± 0.56
[11] = test system: E0771 BrCa murine cell line; test: In vivo antitumor efficacy, syngeneic model, ectopic implantation; parameters: species or system C57BL/6 mice; details: 100 μmol/Kg daily IP
Text: (§1) Despite the efficacy and favourable safety profile of SAP in xenografted models of primary BrCa, a critical question that remained was its evaluation in a more clinically relevant disease model of BrCa that would involve interaction of cancer with the immune system, which is crucial for the progression of the disease.

[12] = test system: E0771 BrCa murine cell line; test: In vivo antitumor efficacy, syngeneic model, orthotopic implantation; parameters: species or system C57BL/6 mice; details: 100 μmol/Kg daily IP
Text: as §1

HCC1954 xenograft [13] = details: HCC1954, 100 μmol/Kg/day IP; for average tumor size at d18: 18 days, vehicle 428 ± 101; for neo-angiogenesis upon sacrifice: d18; for average tumor weight upon sacrifice (d18): vehicle 0.26 ± 0.07
VEGFR-2 [14] = biological target: T7, VEGFR-2 (Homo sapiens, UniProt P35968); test: Cellular ligand-dependent autophosphorylation assay (Western blot) in HUVEC; type: cell-based; parameters: host or cells: HUVEC; details: VEGF165 stimulated, ± SD
[15] = Hematotoxicity, blood analysis; details: 100 μmol/Kg daily IP, one week; vehicle 2.90 ± 0.8
VEGFR-2 [16] = biological target: T7, VEGFR-2; test: Biochemical tyrosine kinase assay (trans-phosphorylation, GST-fusion protein); parameters: 789-end; purchased Sigma Aldrich K2643; details: in vitro kinase activity, ± SD
Target sequence in this assay (P35968 789-1356 limits assumed): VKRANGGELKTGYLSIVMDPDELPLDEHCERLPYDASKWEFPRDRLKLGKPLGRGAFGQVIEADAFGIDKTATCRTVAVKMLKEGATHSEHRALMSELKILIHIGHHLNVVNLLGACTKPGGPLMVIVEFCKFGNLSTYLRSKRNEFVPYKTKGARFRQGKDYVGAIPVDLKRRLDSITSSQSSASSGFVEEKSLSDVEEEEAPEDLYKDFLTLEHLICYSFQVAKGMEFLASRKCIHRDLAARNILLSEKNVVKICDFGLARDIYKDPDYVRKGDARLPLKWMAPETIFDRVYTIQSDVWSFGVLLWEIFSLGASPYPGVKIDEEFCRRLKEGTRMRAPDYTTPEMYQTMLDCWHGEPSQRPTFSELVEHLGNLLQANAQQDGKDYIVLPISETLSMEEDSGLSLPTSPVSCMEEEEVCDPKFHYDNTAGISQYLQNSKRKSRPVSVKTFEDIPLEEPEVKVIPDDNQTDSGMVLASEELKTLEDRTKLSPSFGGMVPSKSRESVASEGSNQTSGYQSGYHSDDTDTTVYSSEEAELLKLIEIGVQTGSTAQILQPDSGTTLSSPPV

[17] = parameters: method as in PMID 26645560; details: IP, equimolar dose, previous results ref 18; cited from earlier work
in vivo [18] = details: female, NOD/SCID, mouse, blood, ip, 100 μmol/Kg
in vivo [19] = details: female, NOD/SCID, mouse, blood, ip, 100 μmol/Kg; remark: listed apart in the source
[20] = female, NOD/SCID, mouse, ip, intraperitoneal, blood
[21] = female, NOD/SCID, mouse, po, per os, blood

T6 sequence (P05622 32-1098): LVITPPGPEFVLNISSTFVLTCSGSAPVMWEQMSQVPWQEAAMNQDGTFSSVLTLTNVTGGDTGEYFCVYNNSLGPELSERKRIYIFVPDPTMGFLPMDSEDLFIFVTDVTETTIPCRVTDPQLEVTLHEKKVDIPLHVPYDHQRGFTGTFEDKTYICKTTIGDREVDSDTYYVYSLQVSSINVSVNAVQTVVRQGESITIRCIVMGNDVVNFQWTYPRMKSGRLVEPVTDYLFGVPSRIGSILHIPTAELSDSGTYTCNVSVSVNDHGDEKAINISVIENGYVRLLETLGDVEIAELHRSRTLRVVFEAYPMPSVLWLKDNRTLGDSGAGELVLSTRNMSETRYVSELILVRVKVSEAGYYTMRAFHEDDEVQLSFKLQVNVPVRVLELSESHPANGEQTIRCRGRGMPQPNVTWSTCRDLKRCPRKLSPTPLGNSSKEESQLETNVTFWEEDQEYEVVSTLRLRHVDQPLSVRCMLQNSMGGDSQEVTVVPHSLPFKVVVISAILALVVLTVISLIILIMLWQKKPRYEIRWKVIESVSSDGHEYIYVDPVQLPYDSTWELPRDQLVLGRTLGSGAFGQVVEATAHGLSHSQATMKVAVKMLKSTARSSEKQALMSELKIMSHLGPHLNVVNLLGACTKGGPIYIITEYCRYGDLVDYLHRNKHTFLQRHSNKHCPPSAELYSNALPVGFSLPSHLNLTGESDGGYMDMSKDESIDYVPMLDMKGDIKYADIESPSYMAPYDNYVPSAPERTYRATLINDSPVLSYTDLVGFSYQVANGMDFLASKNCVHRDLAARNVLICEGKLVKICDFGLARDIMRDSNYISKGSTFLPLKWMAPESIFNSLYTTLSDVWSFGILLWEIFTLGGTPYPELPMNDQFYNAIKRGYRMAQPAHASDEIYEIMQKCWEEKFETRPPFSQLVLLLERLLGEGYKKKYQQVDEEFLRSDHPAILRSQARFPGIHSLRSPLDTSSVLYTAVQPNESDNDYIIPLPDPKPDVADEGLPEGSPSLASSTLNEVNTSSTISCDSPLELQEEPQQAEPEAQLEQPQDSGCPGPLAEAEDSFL
T4 sequence (P07949 658-1063 limits assumed): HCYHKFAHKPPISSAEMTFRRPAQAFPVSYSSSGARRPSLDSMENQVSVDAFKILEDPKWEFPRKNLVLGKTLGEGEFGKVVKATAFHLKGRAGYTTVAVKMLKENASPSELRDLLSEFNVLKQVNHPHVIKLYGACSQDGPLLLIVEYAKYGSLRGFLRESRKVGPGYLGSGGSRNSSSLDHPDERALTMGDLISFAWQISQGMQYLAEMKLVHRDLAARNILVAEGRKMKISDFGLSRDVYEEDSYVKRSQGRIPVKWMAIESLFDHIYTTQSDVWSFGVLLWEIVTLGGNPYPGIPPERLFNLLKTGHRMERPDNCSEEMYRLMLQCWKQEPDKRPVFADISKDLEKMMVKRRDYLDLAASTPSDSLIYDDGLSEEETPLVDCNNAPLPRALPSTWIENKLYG
T3 sequence (P36888 571-993): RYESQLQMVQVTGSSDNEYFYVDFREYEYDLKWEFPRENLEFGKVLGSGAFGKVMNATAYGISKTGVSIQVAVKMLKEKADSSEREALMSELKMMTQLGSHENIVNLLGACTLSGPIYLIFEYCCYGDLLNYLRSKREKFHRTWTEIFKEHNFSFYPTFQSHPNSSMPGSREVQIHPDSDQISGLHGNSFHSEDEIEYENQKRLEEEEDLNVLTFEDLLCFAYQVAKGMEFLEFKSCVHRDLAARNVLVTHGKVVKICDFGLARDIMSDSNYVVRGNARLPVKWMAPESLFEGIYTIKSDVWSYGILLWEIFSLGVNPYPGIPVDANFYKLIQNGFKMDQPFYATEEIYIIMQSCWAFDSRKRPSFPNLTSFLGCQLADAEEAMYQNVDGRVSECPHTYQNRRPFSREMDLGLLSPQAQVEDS
T1 sequence (P09619 557-1106 limits assumed): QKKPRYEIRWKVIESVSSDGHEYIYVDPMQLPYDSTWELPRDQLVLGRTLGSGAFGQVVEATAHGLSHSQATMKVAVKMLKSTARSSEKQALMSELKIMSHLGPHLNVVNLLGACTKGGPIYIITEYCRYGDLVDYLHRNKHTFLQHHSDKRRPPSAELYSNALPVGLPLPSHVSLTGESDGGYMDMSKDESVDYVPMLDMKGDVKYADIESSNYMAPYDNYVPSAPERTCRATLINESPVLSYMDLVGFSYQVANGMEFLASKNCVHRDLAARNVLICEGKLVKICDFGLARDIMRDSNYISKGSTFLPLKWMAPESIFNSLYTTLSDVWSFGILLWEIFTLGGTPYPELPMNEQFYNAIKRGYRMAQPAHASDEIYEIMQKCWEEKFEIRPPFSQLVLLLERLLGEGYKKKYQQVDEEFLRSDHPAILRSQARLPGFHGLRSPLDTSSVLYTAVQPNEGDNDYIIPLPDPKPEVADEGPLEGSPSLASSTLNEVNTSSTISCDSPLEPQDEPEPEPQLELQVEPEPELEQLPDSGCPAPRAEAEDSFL
T2 sequence (P10721 544-976 limits assumed): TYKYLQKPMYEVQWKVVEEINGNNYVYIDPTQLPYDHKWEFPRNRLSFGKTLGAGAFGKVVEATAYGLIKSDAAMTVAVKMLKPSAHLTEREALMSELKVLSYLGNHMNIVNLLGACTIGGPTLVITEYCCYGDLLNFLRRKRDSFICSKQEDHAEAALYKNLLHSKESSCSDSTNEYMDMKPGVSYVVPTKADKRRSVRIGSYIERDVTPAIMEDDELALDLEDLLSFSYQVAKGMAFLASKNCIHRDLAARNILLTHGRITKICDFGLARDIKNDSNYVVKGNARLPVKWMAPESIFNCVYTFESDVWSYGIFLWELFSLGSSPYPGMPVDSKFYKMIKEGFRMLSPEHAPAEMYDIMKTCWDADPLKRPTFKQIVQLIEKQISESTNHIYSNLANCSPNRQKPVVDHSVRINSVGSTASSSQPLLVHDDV
T5 sequence (P00533 695-1210 limits assumed): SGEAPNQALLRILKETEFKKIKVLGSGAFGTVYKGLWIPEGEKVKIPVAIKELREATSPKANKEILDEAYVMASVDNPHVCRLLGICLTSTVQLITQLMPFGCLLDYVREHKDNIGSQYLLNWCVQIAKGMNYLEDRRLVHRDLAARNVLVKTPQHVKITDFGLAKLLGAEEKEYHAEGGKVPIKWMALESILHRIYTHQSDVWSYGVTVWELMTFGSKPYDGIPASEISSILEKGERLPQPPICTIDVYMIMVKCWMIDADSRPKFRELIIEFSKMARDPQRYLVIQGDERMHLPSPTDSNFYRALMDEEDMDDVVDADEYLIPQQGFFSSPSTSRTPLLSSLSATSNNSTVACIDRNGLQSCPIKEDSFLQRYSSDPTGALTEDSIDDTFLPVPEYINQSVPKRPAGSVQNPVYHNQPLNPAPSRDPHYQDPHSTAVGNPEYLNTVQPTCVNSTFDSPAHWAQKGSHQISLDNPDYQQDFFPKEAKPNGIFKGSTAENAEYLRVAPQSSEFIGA

`Cc1[nH]c(/C=C2\C(=O)Nc3ccc(F)cc32)c(C)c1C(=O)NCCN1CCNCC1` [SAP] showed an IC50 (PDGFR-β [1]) of 0.093 µM, an IC50 (KIT) of 0.061 µM and an IC50 (FLT3) of 0.069 µM. For the same compound, the IC50 (RET) was 0.102 µM, the IC50 (EGFR) was greater than 10 µM and the IC50 [2] was 0.061 to 0.102 µM. For the same compound, the IC50 (PDGFR-β [3]) was 0.076 ± 0.022 µM, the IC50 (MCF7) was 10.3 µM and the IC50 (T47D) was 6.5 µM. The IC50 (ZR75-1) was 14.1 µM, the IC50 (HCC1954) was 13.5 µM and the IC50 (SKBR3) was 15.5 µM. For the same compound, the IC50 (HUVEC) was 14.2 µM, the IC50 [4] was 6.5 to 15.8 µM and the “MDA-MB-231 migration in wound healing assay” value (MDA-MB-231) was “inhibited MDA-MB-231 migration”. It also gave a concentration at 8 h ([5]; female, NOD/SCID, mouse, ip, 100 μmol/Kg, intraperitoneal, 100 umol/Kg, blood, 8 h post-dose, read-out: C8 h) of 0.93 ± 0.3 µM, an AUC(0-t) ([5]; female, NOD/SCID, mouse, ip, intraperitoneal, 100 μmol/Kg, blood) of 50.3 ± 15.3 µM·h and a Tmax [5, 20] of 15 min. The Cmax [5, 20] was 27 ± 3.6 µM, the AUC(0-t) ([5]; female, NOD/SCID, mouse, po, per os, 100 μmol/Kg, blood) was 2.5 ± 2.3 µM·h and the Tmax [5, 21] was 60 min. For the same compound, the Cmax [5, 21] was 0.2 ± 0.1 µM, the “time for which concentrations of at least 0.1 μmol/L are sustained post-dose” value ([5]; intraperitoneal, 100 umol/Kg) was “more than 8 h” and the “signs of discomfort or overt toxicity in treated mice” value ([5]; single dose 100 μmol/Kg, per os or IP) was “No signs of discomfort or overt toxicity”. The “average number of CD31+ cells in tumor sections” value (HCC1954 xenograft [6]; d18, vehicle 42.4 ± 8.3) was 16.6 ± 7.1, the “Ki-67 assessed PI (proliferation index)” value (HCC1954 xenograft [6]; d18, vehicle 82.3 ± 11.1) was 19.2 ± 4.9% and the “phosphorylation status of kinases in tumor extracts versus vehicle” value [7] was “marked downregulation of pErk1/2 (Thr202/Tyr204), pAkt (Ser473) and pGSK3 (Ser9)”. For the same compound, the “toxic or off-target morphological phenotypes” value ([8]; 50 μM, 24h treatment) was “No toxic or off-target morphological phenotypes”, the “intersomitic vessel (ISV) formation / angiogenic sprouting at 48 hpf” value ([8]; 50 μM) was “uniform GFP expression in intersomitic vessels; also recorded: minor ISV formation inhibition” and the “intersomitic vessel (ISV) formation / angiogenic sprouting at 48 hpf” value ([8]; 100 μM) was “inhibited angiogenic sprouting; also recorded: more profound”. For the same compound, the “uptake from fish embryos” value [9] was roughly 50%, the “%FS (Fractional Shortening) at one week post treatment” value [10] was 42.38 ± 0.76% and the “%FS (Fractional Shortening), baseline measurement” value ([10]; before treatment) was 47.48 ± 0.91%. The “tumour growth versus vehicle” value [11] was “significant tumour growth inhibition”, the “tumour growth versus vehicle” value [12] was “significant tumour growth inhibition” and the “average tumor size at d18” value (HCC1954 xenograft [13]) was 76 ± 52 mm^3. The neo-angiogenesis upon sacrifice (HCC1954 xenograft [13]) was “only traces of newly formed blood vessels”, the “average tumor weight upon sacrifice (d18)” value (HCC1954 xenograft [13]) was 0.05 ± 0.02 g and the IC50 (VEGFR-2 [14]) was 0.052 ± 0.014 µM. The “white blood cell populations” value [15] was 2.54 ± 1.0 × 10^3 cells and the IC50 (VEGFR-2 [16]) was 0.075 µM.

With `CCN(CC)CCNC(=O)c1c(C)[nH]c(/C=C2\C(=O)Nc3ccc(F)cc32)c1C` [sunitinib, reference compound] the IC50 (PDGFR-β [3]) was 0.072 ± 0.019 µM, the IC50 (MCF7) was 11.2 µM and the IC50 (T47D) was 11.5 µM. It also gave an IC50 (ZR75-1) of 11.4 µM, an IC50 (HCC1954) of 13.9 µM and an IC50 (SKBR3) of 13.2 µM. The “phosphorylation status of kinases in tumor extracts versus vehicle” value [7] was “marked downregulation of pErk1/2 (Thr202/Tyr204), pAkt (Ser473) and pGSK3 (Ser9)”, the “%FS (Fractional Shortening) at one week post treatment” value [10] was 45.42 ± 0.11% and the “tumour growth versus vehicle” value [11] was “significant tumour growth inhibition”. The “tumour growth versus vehicle” value [12] was “significant tumour growth inhibition”, the “average tumor size at d18” value (HCC1954 xenograft [13]) was 152 ± 57 mm^3 and the neo-angiogenesis upon sacrifice (HCC1954 xenograft [13]) was “only traces of newly formed blood vessels”. The “average tumor weight upon sacrifice (d18)” value (HCC1954 xenograft [13]) was 0.07 ± 0.03 g, the “AUC0−24 h” value [17] was 21.4 ± 3.6 h x μmol/L and the Cmax [17] was 6.5 ± 0.9 µM. The Tmax [17] was 15 min, the concentration at 1 h (in vivo [18]) was 10.3 ± 3.7 µM and the concentration at 1 h (in vivo [19]) was 10.8 ± 2.1 µM. The “white blood cell populations” value [15] was 2.24 ± 0.5 × 10^3 cells.
